In patent US20050261194A1, “Use of thymulin-like peptides for making pain-relieving medicines” (priority 2001, published 2005):

How the values were obtained:
Type in all cases: in vivo, rat
rats [1] = assay: Hyperalgesia induced by intraplantar injection of capsaicin; PP, HP, PI tests
Protocol: Injection of capsaicin (10 μg in 50 μl of a 10% solution of Tween 20 in olive oil) produced hyperalgesia, whose peak was at three to six hours after injection and which disappeared at the end of 24 hours. Mechanical hyperalgesia was evaluated using the paw pressure test (PP), which consists in applying a constant pressure of 0.2 kg/cm on the dorsal part of the hind paw. The time lapsed between the application of the pressure and the nociceptive reflex of retraction of the paw was considered as the latency time (or threshold) of mechanical nociceptive. Thermal hyperalgesia was evaluated using the hot-plate (HP) test and the paw immersion (PI) test.
The HP and PI tests were done as in Example 1, the hot-plate having a temperature 52.5±0.3° C. and the hot water container at 48±0.3° C.
The PP and PI tests were done one after the other on the two hind paws observing an interval of five minutes between two consecutive tests.
The rats were sent to the laboratory one week prior to injection so that they would become accustomed to the environment and the tests were done on the rats over two or three days in order to obtain the baseline value for each test before any treatment (detailed description in Kanaan S. A. et al., 1996, Endotoxin-induced local inflammation and hyperalgesia in rats and mice: a new model for inflammatory pain, Pain, 66:373-379).
In the course of the experiments involving the injection […]. of capsaicin, the mean of the measurements done using each pain test (PP, HP or PI) was calculated for each group of rats prior to the injection of the capsaicin (baseline condition) and at different time intervals after injection (3, 6, 9 and 24 hours). TAP was injected (i.p.) thirty minutes before the capsaicin and the latency times of the different pain tests were measured at the same intervals of time after injection of the capsaicin.

NGF = NGF in hind paw skin after intraplantar ET (immunological kit)
Protocol: (§1) These experiments required tissue sampling. The animals were sacrificed by anesthesia (sodium penthiobarbital, 50 mg/kg) and the skin of the hind paws is sampled either at 1 h (for the determination of the TNFα) or at 4 h (for the determination of IL-1β, IL-6 and NGF) after the endotoxin injection.
(§2) These tissue samples are weighed and then quick frozen and stored at −70° C. with a view of proceeding with the evaluation of IL-1β, TNFα, IL-6 and NGF.
(§3) In another series of experiments, the tissues are taken as described above using different groups of rats; the one group being pretreated with TAP 30 minutes before injection of ET and the other group having been injected with TAP only.
(§4) The tissues are homogenized in a phosphate buffer solution (PBS, pH=7.4), containing 0.4 M of NaCl, 0.05% of Tween-20®, 0.5% bovine serum albumin (BSA), 0.1 mM of phenylmethylsulfonyl fluoride, 0.1 mM of benzethonium chloride, 10 mM of EDTA and 20 KI/mL of aprotinin.
The mixture is then centrifuged at 1,200 g for 60 minutes at 4° C. The cytokines and the NFG contained in the supernatant were measured using ELIZA assays.
The NGF is measure with the aid of an immunological kit (Promega) by following the recommended instructions of the manufacturer. […]

IL-1β = IL-1β in hind paw skin after intraplantar ET (ELISA)
Protocol: as §1, §2, §3, §4
The mixture is then centrifuged at 1,200 g for 60 minutes at 4° C. The cytokines and the NFG contained in the supernatant were measured using ELIZA assays. […]

rats [2] = assay: Fever (rectal temperature) induced by intraperitoneal ET; settings: TAP 25 μg i.p. before ET 50 μg i.p.; rectal temperature 1, 3, 6 h; FIG. 4C
Protocol: Protocol 2(b): Different groups of rats (n=5 in each group) were treated in the following fashion • either they received one intraperitoneal injection of 50 μg of ET, • or they were pretreated with the TAP peptide (25 μg, intraperitoneal injection), 30 minutes before an injection of endotoxin.
Rectal temperature was measured at 1 hour, 3 hours and 6 hours.
A control group received an intraperitoneal injection of TAP peptide (25 μg dissolved in 100 μl of saline solution).

[3] = TAP 25 μg in control animals, no ET

Substance: Glu-Ala-lys-Ser-Gln-Gly-Gly-Ser-Asp (SQGGSD; N-terminal Glu-Ala-Lys; printed: Ser-Gln-Gly-Gly-Ser-Asp) [TAP]
- modification of latency times in the pain tests, TAP alone (rats [1]; TAP 25 μg, no capsaicin, FIG. 8 controls): did not result in significant modification
- effect on capsaicin-induced hyperalgesia at the more elevated dose (rats [1]; TAP highest dose i.p. before capsaicin 10 μg i.pl.): complete prevention
- effect on hyperalgesia induced by intraplantar capsaicin (rats [1]; TAP i.p. 1.5 or 25 μg/rat thirty minutes before capsaicin 10 μg, FIG. 8): dose-dependent attenuation
- change of NGF concentration, TAP alone (NGF; [3]): did not induce significant change
- NGF concentration (NGF; TAP pretreatment before intraplantar ET, ET alone 23.0±1.73, saline 9.11±1.6, p<0.001): 16.73±2.70 ng/paw
- change of IL-1β concentration, TAP alone (IL-1β; [3]): did not induce significant change
- IL-1β concentration (IL-1β; TAP pretreatment before intraplantar ET, ET alone 2850.6±255.4, saline 400.0±45.0, P<0.01): 1686.0±266.0 pg/paw
- effect on ET-induced increase of body temperature (rats [2]): nullified the process of increase of body temperature
